Measurements taken from BindingDB's records for doi:10.1021/jm070453f (Gnf, 2007).

Experiments:
[1] = molecular target: T1, Oxysterols receptor LXR-beta (Homo sapiens, UniProt P55055); assay: Fluorescence-Resonance Energy Transfer Assay; settings: pH 7.2; 37 °C
T1 sequence (P55055 whole entry): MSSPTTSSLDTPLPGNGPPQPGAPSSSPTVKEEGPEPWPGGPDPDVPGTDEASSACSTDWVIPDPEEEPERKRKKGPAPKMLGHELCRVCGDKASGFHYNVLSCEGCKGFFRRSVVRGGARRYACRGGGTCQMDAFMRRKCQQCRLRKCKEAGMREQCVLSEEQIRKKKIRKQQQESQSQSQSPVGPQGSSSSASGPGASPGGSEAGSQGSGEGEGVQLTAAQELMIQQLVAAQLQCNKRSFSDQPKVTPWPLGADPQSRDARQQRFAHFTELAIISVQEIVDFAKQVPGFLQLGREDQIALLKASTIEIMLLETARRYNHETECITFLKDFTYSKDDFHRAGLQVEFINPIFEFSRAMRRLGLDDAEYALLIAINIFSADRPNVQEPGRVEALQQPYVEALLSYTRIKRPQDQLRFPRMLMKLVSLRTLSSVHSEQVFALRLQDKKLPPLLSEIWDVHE
Protocol: (§1) FRET-based co-activator recruitment assay measures agonist activities in a 384-well plate format. Reaction mixture containing His-tagged hLXR, biotinylated SRC-1 peptide, Europiumlabeled anti-His antibody, and allophycocyaninlabeled streptavidin (Prozyme) was prepared. Ligands were tested in 12-point dose-response curves, and FRET was read on an AnalystGT (Molecular Devices).

[2] = molecular target: T2, Oxysterols receptor LXR-alpha (Homo sapiens, UniProt Q13133); assay: Scintillation Proximity Assay
T2 sequence (Q13133 whole entry): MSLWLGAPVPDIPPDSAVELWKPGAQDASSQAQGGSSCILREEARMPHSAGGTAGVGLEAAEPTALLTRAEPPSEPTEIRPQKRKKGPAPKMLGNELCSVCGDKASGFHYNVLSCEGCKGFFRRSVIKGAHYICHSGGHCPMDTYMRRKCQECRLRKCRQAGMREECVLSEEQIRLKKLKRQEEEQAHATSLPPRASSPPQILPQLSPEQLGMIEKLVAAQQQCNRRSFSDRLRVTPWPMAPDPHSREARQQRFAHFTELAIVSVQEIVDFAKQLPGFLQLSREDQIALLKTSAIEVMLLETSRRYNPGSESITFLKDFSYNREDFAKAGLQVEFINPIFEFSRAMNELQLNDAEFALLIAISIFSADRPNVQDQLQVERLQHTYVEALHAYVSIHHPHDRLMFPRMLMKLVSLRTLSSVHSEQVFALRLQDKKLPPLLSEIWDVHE
Protocol: (§2) SPA assays were run in displacement mode using 30 nM [3H]-GW3965. Ligands were tested in 12-point dose-response curves starting at 20 uM. IC50 values were determined from dose-response and competition curves, which were generated by nonlinear regression analysis using GraphPad Prism.

[3] = molecular target: T1, Oxysterols receptor LXR-beta; assay: Scintillation Proximity Assay
Protocol: as §2

[4] = molecular target: T2, Oxysterols receptor LXR-alpha; assay: Fluorescence-Resonance Energy Transfer Assay; settings: pH 7.2; 37 °C
Protocol: as §1

**Q.** What does the source list for `COc1cccc(C2SC(c3ccc(Cl)cc3)=NN2C(=O)c2c(F)cc(F)cc2F)c1OC` (racemic) [5-(4-chlorophenyl)-2-(2,3-dimethoxyphenyl)-3-[(2,4,6-trifluorophenyl)carbonyl]-2,3-dihydro-1,3,4-thiadiazole]?
**A.** EC50 [1]: 0.3 µM; IC50 [2]: 9.8 µM; IC50 [3]: 0.3 µM

**Q.** How did the IC50 [2] turn out when `O=C(O)Cc1cccc(OCCCN(Cc2cccc(C(F)(F)F)c2Cl)CC(c2ccccc2)c2ccccc2)c1` [2-{3-[3-({[2-chloro-3-(trifluoromethyl)phenyl]methyl}(2,2-diphenylethyl)amino)propoxy]phenyl}acetic acid] was run?
**A.** 0.121 µM

**Q.** What about the IC50 [3] of the same compound?
**A.** 0.023 µM

**Q.** What does the source list for `COc1ncccc1C1SC(c2ccc(F)cc2)=NN1C(=O)c1c(F)cc(F)cc1F` (centres undefined) [5-(4-fluorophenyl)-2-(2-methoxypyridin-3-yl)-3-[(2,4,6-trifluorophenyl)carbonyl]-2,3-dihydro-1,3,4-thiadiazole]?
**A.** EC50 [4]: 0.4 µM; EC50 [1]: 0.21 µM

**Q.** How did the IC50 [2] turn out when `COc1cccc([C@H]2SC(c3ccc(Cl)cc3)=NN2C(=O)c2c(F)cc(F)cc2F)c1OC` [(2R)-5-(4-chlorophenyl)-2-(2,3-dimethoxyphenyl)-3-[(2,4,6-trifluorophenyl)carbonyl]-2,3-dihydro-1,3,4-thiadiazole] was run?
**A.** 5 µM

**Q.** What about the IC50 [3] of the same compound?
**A.** 0.066 µM
